Measured values reported in article PMC11143257, “Atomistic mechanism of coupling between cytosolic sensor domain and selectivity filter in TREK K2P channels” (Nature Communications, 2024).
Entries after “also recorded” stand apart in the source; their conditions may differ.

Target: T1, WT TRAAK (Homo sapiens, UniProt Q9NYG8)
T1 construct: expressed in transfected cells; host or cells: Xenopus laevis oocytes (cRNA injection), excised inside-out patches
T1 sequence (Q9NYG8 1-393): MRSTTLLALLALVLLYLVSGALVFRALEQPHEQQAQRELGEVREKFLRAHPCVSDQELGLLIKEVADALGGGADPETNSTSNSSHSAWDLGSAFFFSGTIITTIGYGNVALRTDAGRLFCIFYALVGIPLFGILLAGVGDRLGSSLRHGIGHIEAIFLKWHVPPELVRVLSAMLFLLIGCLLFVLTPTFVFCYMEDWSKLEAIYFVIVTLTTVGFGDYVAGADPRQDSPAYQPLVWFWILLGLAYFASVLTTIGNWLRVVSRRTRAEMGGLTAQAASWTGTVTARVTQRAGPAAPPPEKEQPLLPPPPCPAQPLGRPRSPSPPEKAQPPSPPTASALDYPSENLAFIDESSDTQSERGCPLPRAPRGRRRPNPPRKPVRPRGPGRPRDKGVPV
Experiment: MTS probe modification, inside-out patch-clamp
Assay type: cell-based
Details: 100 µM decyl-MTS for at least 30 s, symmetrical K+, pH 7.4, +40 mV
Description: First, we measured WT TREK-1, WT TRAAK and TREK-2^* channels without modifiable cysteine residues as references. Upon application of 100 µM of decyl-MTS for at least 30 s to the respective channel in excised membrane patches, no change in current amplitudes was recognized (Fig. 2a and Supplementary Fig. 2a, b). Note, that patch integrity and channel regulation were tested with either 1 mM tetra-pentyl-ammonium (TPenA) and a short pHi activation step. Next, we conducted systematic cysteine scanning mutagenesis of the entire pCt and examined the effect of charged and aliphatic MTS probes. […] Remarkably, all hit residues face toward the inner leaflet of the lipid bilayer (Fig. 2b, inlay).
Xenopus laevis oocytes were surgically removed from anesthetized adult females, treated with type II collagenase (Sigma-Aldrich/Merck, Germany) and manually defolliculated. […] Currents were recorded with an EPC10 amplifier (HEKA electronics, Germany) and sampled at 10 kHz or higher and filtered with 3 kHz (-3 dB) or higher as appropriate for the sampling rate. […]
The fold current increase (fold activation) of a ligand (decyl-MTS) was calculated from the following equation:1 FoldactivationFA=Iactivated/Ibasal with Iactivated represents the stable current level in the presence of 100 µM decyl-MTS and Ibasal the measured current before application of the MTS probe.

- effect on current amplitude: no change; also recorded: no effect
SMILES: CCCCCCCCCCSS(C)(=O)=O [decyl-MTS, Decyl-MethaneThioSulfonate]
